Results as given in patent US9000186B2, “Ring-fused heterocyclic derivative” (Kyowa Hakko Kirin Co., Ltd., priority 2011, dated 2015).
Where two headings read alike, the source gives them in different places.

Biological target: T1, human Cav3.2 T-type Ca2+ channel (Homo sapiens, UniProt O95180)
T1 construct: expressed in transfected cells; host or cells: KJMGER8 cells (Namalwa cell-derived cell line)
Assay: Inhibitory effect for intracellular calcium response via Cav3.2 T-type Ca2+ channels (FLIPR Calcium 3 Assay Kit)
Format: cell-based

[1] = human Cav3.2-expressing KJMGER8 cells (Namalwa-derived), calcium response induced by 5 mmol/L CaCl2, normalised to 3 μmol/L mibefradil, read-out: IC50 for the human Cav3.2 T-type Ca2+ current

T1 sequence (O95180 whole entry): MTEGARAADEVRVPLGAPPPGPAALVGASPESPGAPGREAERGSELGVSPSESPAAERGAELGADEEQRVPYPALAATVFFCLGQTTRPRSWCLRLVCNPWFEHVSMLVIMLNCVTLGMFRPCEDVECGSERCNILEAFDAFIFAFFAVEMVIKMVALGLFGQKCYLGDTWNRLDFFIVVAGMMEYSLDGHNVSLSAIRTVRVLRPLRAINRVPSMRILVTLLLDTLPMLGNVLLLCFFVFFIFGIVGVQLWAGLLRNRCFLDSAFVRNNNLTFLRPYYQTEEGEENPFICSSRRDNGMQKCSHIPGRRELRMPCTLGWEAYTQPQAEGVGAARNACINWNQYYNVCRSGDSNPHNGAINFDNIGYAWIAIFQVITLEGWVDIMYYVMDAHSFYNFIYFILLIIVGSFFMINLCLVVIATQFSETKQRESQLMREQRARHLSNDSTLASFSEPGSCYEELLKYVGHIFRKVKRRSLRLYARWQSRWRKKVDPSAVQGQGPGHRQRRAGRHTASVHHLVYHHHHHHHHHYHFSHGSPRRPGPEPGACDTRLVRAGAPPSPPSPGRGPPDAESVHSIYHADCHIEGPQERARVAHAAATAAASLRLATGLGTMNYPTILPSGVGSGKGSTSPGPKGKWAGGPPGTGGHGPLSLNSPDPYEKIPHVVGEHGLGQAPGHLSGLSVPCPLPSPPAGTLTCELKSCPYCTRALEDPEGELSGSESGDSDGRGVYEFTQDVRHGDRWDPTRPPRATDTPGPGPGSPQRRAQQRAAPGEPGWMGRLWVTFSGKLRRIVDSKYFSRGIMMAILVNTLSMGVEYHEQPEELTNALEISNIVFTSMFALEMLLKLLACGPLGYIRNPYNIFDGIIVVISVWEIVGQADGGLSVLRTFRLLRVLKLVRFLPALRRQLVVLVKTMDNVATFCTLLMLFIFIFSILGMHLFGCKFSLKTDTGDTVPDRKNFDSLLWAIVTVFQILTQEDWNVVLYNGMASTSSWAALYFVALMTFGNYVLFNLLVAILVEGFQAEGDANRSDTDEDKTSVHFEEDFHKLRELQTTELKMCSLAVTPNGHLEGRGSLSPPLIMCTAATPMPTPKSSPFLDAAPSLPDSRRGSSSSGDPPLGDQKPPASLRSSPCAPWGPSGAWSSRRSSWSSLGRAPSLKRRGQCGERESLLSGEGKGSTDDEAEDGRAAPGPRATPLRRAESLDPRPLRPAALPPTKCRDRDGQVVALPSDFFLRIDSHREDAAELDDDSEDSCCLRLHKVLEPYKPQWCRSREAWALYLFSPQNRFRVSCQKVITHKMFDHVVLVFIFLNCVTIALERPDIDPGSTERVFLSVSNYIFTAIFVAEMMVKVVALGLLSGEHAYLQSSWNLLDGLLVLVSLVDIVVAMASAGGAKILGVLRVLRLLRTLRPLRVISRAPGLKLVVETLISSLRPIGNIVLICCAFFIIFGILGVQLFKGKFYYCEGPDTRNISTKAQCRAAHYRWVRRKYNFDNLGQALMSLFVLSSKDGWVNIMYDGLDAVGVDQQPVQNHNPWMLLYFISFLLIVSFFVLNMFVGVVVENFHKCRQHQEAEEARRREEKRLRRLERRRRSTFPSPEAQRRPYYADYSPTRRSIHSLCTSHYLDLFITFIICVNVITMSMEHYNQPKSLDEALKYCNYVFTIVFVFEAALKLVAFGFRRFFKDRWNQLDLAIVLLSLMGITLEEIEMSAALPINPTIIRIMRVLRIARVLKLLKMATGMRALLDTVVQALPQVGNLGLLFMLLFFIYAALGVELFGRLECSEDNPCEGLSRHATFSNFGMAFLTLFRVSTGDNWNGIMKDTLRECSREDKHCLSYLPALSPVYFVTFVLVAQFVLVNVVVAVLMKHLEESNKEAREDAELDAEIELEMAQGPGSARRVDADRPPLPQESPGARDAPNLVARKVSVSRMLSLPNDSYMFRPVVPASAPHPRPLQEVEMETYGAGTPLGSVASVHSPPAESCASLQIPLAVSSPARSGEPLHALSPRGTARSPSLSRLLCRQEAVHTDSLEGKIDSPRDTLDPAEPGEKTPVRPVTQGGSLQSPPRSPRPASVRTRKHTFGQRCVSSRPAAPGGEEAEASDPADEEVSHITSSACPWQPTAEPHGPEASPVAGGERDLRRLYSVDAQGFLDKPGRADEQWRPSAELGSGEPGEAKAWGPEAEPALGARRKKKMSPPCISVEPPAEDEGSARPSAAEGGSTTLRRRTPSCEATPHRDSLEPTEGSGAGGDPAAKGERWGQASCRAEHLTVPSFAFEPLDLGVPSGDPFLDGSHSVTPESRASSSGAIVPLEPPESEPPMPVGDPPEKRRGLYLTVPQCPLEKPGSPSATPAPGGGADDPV

Structure (SMILES)	IC50	IC50 [1]
CCN(CC)C(=O)c1ccn2c(SC3CCCCC3)c(C(C)C)nc2c1 [Compound 12, 3-Cyclohexylthio-N,N-diethyl-2-isopropylimidazo[1,2-a]pyridine-7-carboxamide]	< 0.1 µM	
CC(C)(C)c1nc2cc(C(=O)NCc3ccccc3)ccn2c1CC1CCCCC1 [Compound 16, N-Benzyl-2-tert-butyl-3-cyclohexylmethylimidazo[1,2-a]pyridine-7-carboxamide]	< 0.1 µM	
CC(C)(C)c1nc2cc(C(=O)NNC(=O)c3ccccc3)ccn2c1CC1CCCCC1 [Compound 17, N′-Benzoyl-2-tert-butyl-3-cyclohexylmethylimidazo[1,2-a]pyridine-7-carbohydrazide]	< 0.1 µM	
CC(C)CC(=O)N(C)c1ccn2c(CC3CCCCC3)c(C(C)(C)C)nc2c1 [Compound 19, N-(2-tert-Butyl-3-cyclohexylmethylimidazo[1,2-a]pyridin-7-yl)-N,3-dimethylbutanamide]	< 0.1 µM	
CN(C)S(=O)(=O)N(C)c1ccn2c(CC3CCCCC3)c(C(C)(C)C)nc2c1 [Compound 20, N-(2-tert-Butyl-3-cyclohexylmethylimidazo[1,2-a]pyridin-7-yl)-N,N′,N′-trimethylsulfamide]	< 0.1 µM	
CC(C)c1nc2cc(C(=O)Nc3nccs3)ccn2c1COC1CCCCC1 [Compound 25, 3-Cyclohexyloxymethyl-2-isopropyl-N-(thiazol-2-yl)imidazo[1,2-a]pyridine-7-carboxamide]	< 0.1 µM	
CC(C)c1nc2cc(NC(=O)c3ccccc3)ccn2c1COC1CCCCC1 [Compound 28, N-(3-Cyclohexyloxymethyl-2-isopropylimidazo[1,2-a]pyridin-7-yl)benzamide]		< 0.1 µM
CC(C)c1nc2cc(-c3nc4ccccc4[nH]3)ccn2c1COC1CCCCC1 [Compound 33, 2-(3-Cyclohexyloxymethyl-2-isopropylimidazo[1,2-a]pyridin-7-yl)-1H-benzimidazole]		< 0.1 µM
CC(C)c1nc2cc(C(=O)Nc3ccncc3)ccn2c1Cc1ccccc1 [Compound 37, 3-Benzyl-2-isopropyl-N-(pyridin-4-yl)imidazo[1,2-a]pyridine-7-carboxamide]	< 0.1 µM	
Cc1cn2c(S(=O)(=O)C3CCCCC3)c(C(C)C)nc2cc1C(=O)Nc1ccncc1 [Compound 39, 3-Cyclohexylsulfonyl-2-isopropyl-6-methyl-N-(pyridin-4-yl)imidazo[1,2-a]pyridine-7-carboxamide]	< 0.1 µM	
CC(C)c1nc2cc(C(=O)Nc3ccccc3)ccn2c1SC1CCCCC1 [Compound 40, 3-Cyclohexylthio-2-isopropyl-N-phenylimidazo[1,2-a]pyridine-7-carboxamide]	< 0.1 µM	
Cc1c(C(=O)Nc2ccncc2)ccn2c(CC3CCCCC3)c(C(C)(C)C)nc12 [Compound 42, 2-tert-Butyl-3-cyclohexylmethyl-8-methyl-N-(pyridin-4-yl)imidazo[1,2-a]pyridine-7-carboxamide]	< 0.1 µM	
CS(=O)(=O)c1cccc(NC(=O)c2ccn3c(CC4CCC(F)(F)CC4)c(C(F)(F)F)nc3c2)c1 [Compound 48, 3-(4,4-Difluorocyclohexylmethyl)-N-(3-methanesulfonylphenyl)-2-trifluoromethylimidazo[1,2-a]pyridine-7-carboxamide]		< 0.1 µM
CC1(C)COCCC1NC(=O)c1ccn2c(CC3CCC(F)(F)CC3)c(C(F)(F)F)nc2c1 (stereo not shown) [Compound 53, 3-(4,4-Difluorocyclohexylmethyl)-N-(3,3-dimethyltetrahydro-2H-pyran-4-yl)-2-trifluoromethylimidazo[1,2-a]pyridine-7-carboxamide]	< 0.1 µM	
CCC1(CNC(=O)c2ccn3c(CC4CCC(F)(F)CC4)c(C(F)(F)F)nc3c2)COC1 [Compound 56, 3-(4,4-Difluorocyclohexylmethyl)-N-{(3-ethyloxetan-3-yl)methyl}-2-trifluoromethylimidazo[1,2-a]pyridine-7-carboxamide]		< 0.1 µM
CC1(CNC(=O)c2ccn3c(CC4CCC(F)(F)CC4)c(C(F)(F)F)nc3c2)CCCO1 (stereo not shown) [Compound 57, 3-(4,4-Difluorocyclohexylmethyl)-N-{(2-methyltetrahydrofuran-2-yl)methyl}-2-trifluoromethylimidazo[1,2-a]pyridine-7-carboxamide]		< 0.1 µM
COCC1(CNC(=O)c2ccn3c(CC4CCC(F)(F)CC4)c(C(F)(F)F)nc3c2)CCOCC1 [Compound 59, 3-(4,4-Difluorocyclohexylmethyl)-N-[{4-(methoxymethyl)tetrahydro-2H-pyran-4-yl}methyl]-2-trifluoromethylimidazo[1,2-a]pyridine-7-carboxamide]	< 0.1 µM	

Structure (SMILES)	IC50	IC50 [1]
O=C(NC1CCOCC1)c1ccn2c(CC3CCC(F)(F)CC3)c(C3(C(F)(F)F)CC3)nc2c1 [Compound 65, 3-(4,4-Difluorocyclohexylmethyl)-N-(tetrahydro-2H-pyran-4-yl)-2-(1-trifluoromethylcyclopropyl)imidazo[1,2-a]pyridine-7-carboxamide]	< 0.1 µM	
Cc1cc(C(=O)Nc2ccccc2N)cc2nc(C(F)(F)F)c(CC3CCC(F)(F)CC3)n12 [Compound 68, N-(2-Aminophenyl)-3-(4,4-difluorocyclohexylmethyl)-5-methyl-2-trifluoromethylimidazo[1,2-a]pyridine-7-carboxamide]	< 0.1 µM	
Cc1cc(C(=O)NC2CCC(=O)CC2)cc2nc(C(F)(F)F)c(CC3CCC(F)(F)CC3)n12 [Compound 71, 3-(4,4-Difluorocyclohexylmethyl)-5-methyl-N-(4-oxocyclohexyl)-2-trifluoromethylimidazo[1,2-a]pyridine-7-carboxamide]	< 0.1 µM	
Cc1cc(C(=O)NC2CCSCC2)cc2nc(C(F)(F)F)c(CC3CCC(F)(F)CC3)n12 [Compound 74, 3-(4,4-Difluorocyclohexylmethyl)-5-methyl-N-(tetrahydro-2H-thiopyran-4-yl)-2-trifluoromethylimidazo[1,2-a]pyridine-7-carboxamide]	< 0.1 µM	
Cc1cc(C(=O)NCC2(CO)CCOCC2)cc2nc(C(F)(F)F)c(CC3CCC(F)(F)CC3)n12 [Compound 85, 3-(4,4-Difluorocyclohexylmethyl)-N-[{4-(hydroxymethyl)tetrahydro-2H-pyran-4-yl}methyl]-5-methyl-2-trifluoromethylimidazo[1,2-a]pyridine-7-carboxamide]	< 0.1 µM	
COC1(CNC(=O)c2cc(C)n3c(CC4CCC(F)(F)CC4)c(C(F)(F)F)nc3c2)CCOCC1 [Compound 86, 3-(4,4-Difluorocyclohexylmethyl)-N-{(4-methoxytetrahydro-2H-pyran-4-yl)methyl}-5-methyl-2-trifluoromethylimidazo[1,2-a]pyridine-7-carboxamide]		< 0.1 µM
Cc1cc(C(=O)NCC2(F)CCOCC2)cc2nc(C(F)(F)F)c(CC3CCC(F)(F)CC3)n12 [Compound 87, 3-(4,4-Difluorocyclohexylmethyl)-N-{(4-fluorotetrahydro-2H-pyran-4-yl)methyl}-5-methyl-2-trifluoromethylimidazo[1,2-a]pyridine-7-carboxamide]	< 0.1 µM	
Cc1cc(C(=O)NOC2CCOCC2)cc2nc(C(F)(F)F)c(CC3CCC(F)(F)CC3)n12 [Compound 90, 3-(4,4-Difluorocyclohexylmethyl)-5-methyl-N-(tetrahydro-2H-pyran-4-yloxy)-2-trifluoromethylimidazo[1,2-a]pyridine-7-carboxamide]	< 0.1 µM	
Cc1cc(C(=O)N(C)C2CCOCC2)cc2nc(C(F)(F)F)c(CC3CCC(F)(F)CC3)n12 [Compound 91, 3-(4,4-Difluorocyclohexylmethyl)-N,5-dimethyl-N-(tetrahydro-2H-pyran-4-yl)-2-trifluoromethylimidazo[1,2-a]pyridine-7-carboxamide]	< 0.1 µM	
Cc1cc(C(=O)NCC2COCCOC2)cc2nc(C(F)(F)F)c(CC3CCC(F)(F)CC3)n12 [Compound 93, N-{(1,4-Dioxepan-6-yl)methyl}-3-(4,4-difluorocyclohexylmethyl)-5-methyl-2-trifluoromethylimidazo[1,2-a]pyridine-7-carboxamide]		< 0.1 µM
Cc1cc(C(=O)NCC2(C)COC2)cc2nc(C(F)(F)F)c(CC3CCC(F)(F)CC3)n12 [Compound 95, 3-(4,4-Difluorocyclohexylmethyl)-5-methyl-N-{(3-methyloxetan-3-yl)methyl}-2-trifluoromethylimidazo[1,2-a]pyridine-7-carboxamide]	< 0.1 µM	
COC(C)(C)c1nc2cc(C(=O)NC3CCOCC3)cc(C)n2c1CC1CCC(F)(F)CC1 [Compound 97, 3-(4,4-Difluorocyclohexylmethyl)-2-(2-methoxypropan-2-yl)-5-methyl-N-(tetrahydro-2H-pyran-4-yl)imidazo[1,2-a]pyridine-7-carboxamide]	< 0.1 µM	
O=C(Nc1ccccc1)c1cc(Cl)n2c(CC3CCC(F)(F)CC3)c(C(F)(F)F)nc2c1 [Compound 102, 5-Chloro-3-(4,4-difluorocyclohexylmethyl)-N-phenyl-2-trifluoromethylimidazo[1,2-a]pyridine-7-carboxamide]	< 0.1 µM	
O=C(NCC1CCOC1)c1cc(Cl)n2c(CC3CCC(F)(F)CC3)c(C(F)(F)F)nc2c1 (stereo not shown) [Compound 106, 5-Chloro-3-(4,4-difluorocyclohexylmethyl)-N-{(tetrahydrofuran-3-yl)methyl}-2-trifluoromethylimidazo[1,2-a]pyridine-7-carboxamide]	< 0.1 µM	
O=C(Nc1ccccc1)c1cc2nc(C(F)(F)F)c(CC3CCC(F)(F)CC3)n2cc1Cl [Compound 107, 6-Chloro-3-(4,4-difluorocyclohexylmethyl)-N-phenyl-2-trifluoromethylimidazo[1,2-a]pyridine-7-carboxamide]		< 0.1 µM
CC(C)(c1nc2cc(C(=O)NC3CCOCC3)c(Cl)cn2c1CC1CCC(F)(F)CC1)C(F)(F)F [Compound 115, 6-Chloro-3-(4,4-difluorocyclohexylmethyl)-N-(tetrahydro-2H-pyran-4-yl)-2-(1,1,1-trifluoro-2-methylpropan-2-yl)imidazo[1,2-a]pyridine-7-carboxamide]	< 0.1 µM	
O=C(Nc1ccccc1)c1cc2nc(C(F)(F)F)c(CC3CCC(F)(F)CC3)n2cc1Br [Compound 117, 6-Bromo-3-(4,4-difluorocyclohexylmethyl)-N-phenyl-2-trifluoromethylimidazo[1,2-a]pyridine-7-carboxamide]	< 0.1 µM	
